Where a name gives a salt, the structure may show the parent alone. Read-outs that look alike come from different tables or passages of the source.
Target: T1, recombinant full-length USP7 (Homo sapiens, UniProt Q93009)
T1 construct: A 25 μl reaction volume containing recombinant full-length USP7 (62 pM)
Assay: USP7-mediated ubiquitin-rhodamine cleavage assay
Type: biochemical
Conditions: recombinant full-length USP7 62 pM, ubiquitin-rhodamine 100 nM, 1 hour reaction at room temperature
Summary of the method: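 USP7 (62 pM) in 20 mM HEPES pH 7.3, 150 mM NaCl, 1 mM TCEP, 125 μg/ml BSA was preincubated with compound (1% DMSO) for 30 min at room temperature. Ubiquitin-rhodamine (100 nM final) was then added for 1 hour, the reaction stopped with acetic acid, and fluorescence read; IC50 from 4-parameter fit.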

[1] = 30-minute pre-incubation, read-out: Potency (USP7 IC50)
[2] = 30-minute incubation with compound, read-out: Potency: USP7 IC50

T1 sequence (Q93009 whole entry): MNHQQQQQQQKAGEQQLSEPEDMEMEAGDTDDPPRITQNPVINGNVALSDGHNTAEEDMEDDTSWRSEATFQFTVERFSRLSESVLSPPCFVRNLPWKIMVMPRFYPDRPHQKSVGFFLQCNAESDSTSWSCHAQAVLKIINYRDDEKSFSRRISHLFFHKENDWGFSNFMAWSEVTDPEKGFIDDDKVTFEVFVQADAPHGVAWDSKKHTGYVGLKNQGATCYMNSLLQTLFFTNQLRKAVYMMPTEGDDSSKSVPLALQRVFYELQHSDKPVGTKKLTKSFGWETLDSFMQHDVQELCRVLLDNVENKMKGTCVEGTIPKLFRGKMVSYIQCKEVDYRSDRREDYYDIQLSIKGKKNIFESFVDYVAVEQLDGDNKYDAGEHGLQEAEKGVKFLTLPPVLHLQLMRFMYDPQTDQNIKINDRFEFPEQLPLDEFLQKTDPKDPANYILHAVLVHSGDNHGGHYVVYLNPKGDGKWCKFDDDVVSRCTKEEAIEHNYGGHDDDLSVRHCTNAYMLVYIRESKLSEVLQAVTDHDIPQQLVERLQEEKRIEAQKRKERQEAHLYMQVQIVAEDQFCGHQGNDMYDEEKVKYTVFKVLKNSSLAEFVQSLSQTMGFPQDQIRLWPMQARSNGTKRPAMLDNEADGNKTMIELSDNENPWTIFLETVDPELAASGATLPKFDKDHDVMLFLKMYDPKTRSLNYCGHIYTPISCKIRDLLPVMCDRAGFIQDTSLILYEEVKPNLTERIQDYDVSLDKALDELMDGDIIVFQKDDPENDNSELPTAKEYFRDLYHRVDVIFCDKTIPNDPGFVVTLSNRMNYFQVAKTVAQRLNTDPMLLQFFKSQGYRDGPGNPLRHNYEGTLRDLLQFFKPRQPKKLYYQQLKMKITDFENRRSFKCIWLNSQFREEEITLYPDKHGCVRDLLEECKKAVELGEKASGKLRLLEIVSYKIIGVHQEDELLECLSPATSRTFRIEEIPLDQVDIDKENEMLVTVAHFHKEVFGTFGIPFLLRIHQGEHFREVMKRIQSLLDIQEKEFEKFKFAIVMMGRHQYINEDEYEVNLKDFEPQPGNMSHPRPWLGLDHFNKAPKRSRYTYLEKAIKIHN

IC50 [1] [nM] | IC50 [2] [nM] | Compound
 | < 1000 | Cc1cc(C#N)cc(-c2ccnc3cc(CN4C(=O)CCS4(=O)=O)sc23)c1O[C@@H]1CNC[C@@H]1F [Example 114, 3-(2-((1,1-Dioxido-3-oxoisothiazolidin-2-yl)methyl)thieno[3,2-b]pyridin-7-yl)-4-(((3R,4S)-4-fluoropyrrolidin-3-yl)oxy)-5-methylbenzonitrile]
 | 1000 to 10000 | O=C1CNC(=O)N1Cc1cc2ncnc(-c3cccc(OC(F)(F)F)c3)c2s1 [Example 403, 3-[[4-[3-(trifluoromethoxy)phenyl]thieno[3,2-d]pyrimidin-6-yl]methyl]imidazolidine-2,4-dione]
 | 10000 to 30000 | Cc1cc(Cl)cc(-c2ccnc3cc(CO)sc23)c1OC[C@H]1CCCN1 [Example 58, (R)-(7-(5-Chloro-3-methyl-2-(pyrrolidin-2-ylmethoxy)phenyl)thieno[3,2-b]pyridin-2-yl)methanol]
< 1000 |  | Cc1cc(Cl)cc(-c2ccnc3cc(Cn4c(=O)ccn(CC(F)(F)F)c4=O)sc23)c1O[C@H]1CNC[C@@H]1C [Example 567, 3-[[7-[5-chloro-3-methyl-2-[(3R,4S)-4-methylpyrrolidin-3-yl]oxy-phenyl]thieno[3,2-b]pyridin-2-yl]methyl]-1-(2,2,2-trifluoroethyl)pyrimidine-2,4-dione]
 | 1000 to 10000 | CCC(O)c1cc2nccc(-c3cc(Cl)cc(C)c3OCC3(C)CNC3)c2s1 (stereo not shown) [Example 33, 1-(7-(5-Chloro-3-methyl-2-((3-methylazetidin-3-yl)methoxy)phenyl)thieno[3,2-b]pyridin-2-yl)propan-1-ol]
< 1000 |  | Cc1cc(Cl)cc(-c2ccnc3cc(Cn4c(=O)ccn(CC(F)(F)F)c4=O)sc23)c1OCC1COC1 [Example 669, 3-[[7-[5-chloro-3-methyl-2-(oxetan-3-ylmethoxy)phenyl]thieno[3,2-b]pyridin-2-yl]methyl]-1-(2,2,2-trifluoroethyl)pyrimidine-2,4-dione]
< 1000 |  | Cc1cc(Cl)cc(-c2ccnc3cc(Cn4c(=O)c(F)cn(CC(F)(F)F)c4=O)sc23)c1O[C@H]1CCCNC1 [Example 555, 3-[[7-[5-chloro-3-methyl-2-[[(3S)-3-piperidyl]oxy]phenyl]thieno[3,2-b]pyridin-2-yl]methyl]-5-fluoro-1-(2,2,2-trifluoroethyl)pyrimidine-2,4-dione]
< 1000 |  | Cc1cc(Cl)cc(-c2ncnc3cc(Cn4c(=O)ccn(C(C)C)c4=O)sc23)c1O[C@H]1CCCN(C)C1 [Example 512, 3-[[4-[5-chloro-3-methyl-2-[[(3S)-1-methyl-3-piperidyl]oxy]phenyl]thieno[3,2-d]pyrimidin-6-yl]methyl]-1-isopropyl-pyrimidine-2,4-dione]
< 1000 |  | Cn1ccc(=O)n(Cc2cc3nccc(-c4cc(Cl)cc(C(F)F)c4O[C@H]4CCCNC4)c3s2)c1=O [Example 498, 3-[[7-[5-chloro-3-(difluoromethyl)-2-[[(3S)-3-piperidyl]oxy]phenyl]thieno[3,2-b]pyridin-2-yl]methyl]-1-methyl-pyrimidine-2,4-dione]
 | < 1000 | 3-((7-(5-Chloro-2-(((3S,4R)-4-fluoropiperidin-3-yl)oxy)-3-methyphenyl)thien[3,2-b]pyridin-2-yl)methyl)-1-(2,2,2-trifluoroethyl)pyrimidine-2,4(1H,3H)-dione [Example 4]
 | < 1000 | Cc1cc(Cl)cc(-c2ccnc3cc(CN4C(=O)C5C(C4=O)C5(C)C)sc23)c1O[C@H]1CCCN[C@H]1C (stereo partly drawn) [Example 363, 3-[[7-[5-chloro-3-methyl-2-[[(2S,3S)-2-methyl-3-piperidyl]oxy]phenyl]thieno[3,2-b]pyridin-2-yl]methyl]-6,6-dimethyl-3-azabicyclo[3.1.0]hexane-2,4-dione; 2,2,2-trifluoroacetic acid]
< 1000 |  | Cc1cc(Cl)cc(-c2ccnc3cc(Cn4c(=O)ccn(CC(F)(F)F)c4=O)sc23)c1OC1CCNCC12CC2 (stereo not shown) [Example 617, 3-[[7-[2-(5-azaspiro[2.5]octan-8-yloxy)-5-chloro-3-methyl-phenyl]thieno[3,2-b]pyridin-2-yl]methyl]-1-(2,2,2-trifluoroethyl)pyrimidine-2,4-dione; 2,2,2-trifluoroacetic acid]
< 1000 |  | Cc1cc(Cl)cc(-c2ccnc3cc(Cn4c(=O)ccn(C)c4=O)sc23)c1O[C@H]1CCNC[C@H]1C [Example 453]
 | 1000 to 10000 | CCC(O)c1cc2nccc(-c3cc(Cl)cc(C)c3O[C@@H]3CN[C@H](C(C)(C)O)C3)c2s1 (stereo partly drawn) [Example 86, 1-(7-(5-Chloro-2-(((3S,5S)-5-(2-hydroxypropan-2-yl)pyrrolidin-3-yl)oxy)-3-methylphenyl)thieno[3,2-b]pyridin-2-yl)propan-1-ol]
< 1000 |  | Cc1cc(Cl)cc(-c2ccnc3cc(Cn4c(=O)ccn(C)c4=O)sc23)c1OC1CN2CCC1C2 [Example 529, 3-[[7-[2-[[(1R,3R,4S)-1-azabicyclo[2.2.1]heptan-3-yl]oxy]-5-chloro-3-methyl-phenyl]thieno[3,2-b]pyridin-2-yl]methyl]-1-methyl-pyrimidine-2,4-dione]
< 1000 |  | CCN1CCC[C@H](Oc2c(C)cc(Cl)cc2-c2ccnc3cc(Cn4c(=O)ccn(C)c4=O)sc23)CC1 [Example 493, 3-[[7-[5-chloro-2-[(4S)-1-ethylazepan-4-yl]oxy-3-methyl-phenyl]thieno[3,2-b]pyridin-2-yl]methyl]-1-methyl-pyrimidine-2,4-dione]
 | 1000 to 10000 | CCC(O)c1cc2ncnc(-c3cc(Cl)cc(C)c3O[C@@H]3CNC[C@@H]3F)c2s1 (stereo partly drawn) [Example 94, 1-(4-(5-Chloro-2-(((3R,4S)-4-fluoropyrrolidin-3-yl)oxy)-3-methylphenyl)thieno[3,2-d]pyrimidin-6-yl)propan-1-ol]
< 1000 |  | Cc1cc(Cl)cc(-c2ncnc3cc(CN4C(=O)C5CC5C4=O)sc23)c1OC1CCCNC1 (stereo not shown) [Example 412, 3-[[4-[5-chloro-3-methyl-2-(3-piperidyloxy)phenyl]thieno[3,2-d]pyrimidin-6-yl]methyl]-3-azabicyclo[3.1.0]hexane-2,4-dione]
< 1000 |  | Cc1cc(Cl)cc(-c2ccnc3cc(Cn4c(=O)ccn(CC(F)(F)F)c4=O)sc23)c1OCCN1CCOCC1 [Example 662, 3-[[7-[5-chloro-3-methyl-2-(2-morpholinoethoxy)phenyl]thieno[3,2-b]pyridin-2-yl]methyl]-1-(2,2,2-trifluoroethyl)pyrimidine-2,4-dione; 2,2,2-trifluoroacetic acid]
 | < 1000 | Cc1cc(C(F)(F)F)cc(-c2ccnc3cc(CN4C(=O)CCC4=O)sc23)c1O[C@H]1CCCNC1 [Example 254, (S)-1-((7-(3-Methyl-2-(piperidin-3-yloxy)-5-(trifluoromethyl)phenyl)thieno[3,2-b]pyridin-2-yl)methyl)pyrrolidine-2,5-dione]
1000 to 10000 |  | Cc1cc(Cl)cc(-c2ccnc3cc(Cn4c(=O)ccn(C)c4=O)sc23)c1O[C@H]1CN[C@H](C(=O)O)C1 [Example 600, (2S,4R)-4-[4-chloro-2-methyl-6-[2-[(3-methyl-2,6-dioxo-pyrimidin-1-yl)methyl]thieno[3,2-b]pyridin-7-yl]phenoxy]pyrrolidine-2-carboxylic acid]
< 1000 |  | CCN1CC[C@H](Oc2c(C)cc(Cl)cc2-c2ccnc3cc(Cn4c(=O)ccn(C)c4=O)sc23)[C@@H](F)C1 [Example 482, 3-[[7-[5-chloro-2-[[(3S,4S)-1-ethyl-3-fluoro-4-piperidyl]oxy]-3-methyl-phenyl]thieno[3,2-b]pyridin-2-yl]methyl]-1-methyl-pyrimidine-2,4-dione; 2,2,2-trifluoroacetic acid]
 | 10000 to 30000 | Cc1cc(Cl)cc(-c2ccnc3cc(CO)sc23)c1O[C@@H]1CC[C@H](N)C1 [Example 89, (7-(2-(((1R,3S)-3-Aminocyclopentyl)oxy)-5-chloro-3-methylphenyl)thieno[3,2-b]pyridin-2-yl)methanol]
< 1000 |  | Cc1cc(Cl)cc(-c2ccnc3cc(CN4C(=O)CCC4=O)sc23)c1OC1CCCC(N)C1 (stereo not shown) [Example 427, 1-[[7-[2-(3-aminocyclohexoxy)-5-chloro-3-methyl-phenyl]thieno[3,2-b]pyridin-2-yl]methyl]pyrrolidine-2,5-dione; 2,2,2-trifluoroacetic acid]

Compound | IC50 [1] [nM] | IC50 [2] [nM]
Cc1cc(Cl)cc(-c2ncnc3cc(Cn4c(=O)ccn(CC(F)(F)F)c4=O)sc23)c1O[C@H]1CC[C@](C)(N)C1 [Example 586, 3-[[4-[2-[(1S,3S)-3-amino-3-methyl-cyclopentoxy]-5-chloro-3-methyl-phenyl]thieno[3,2-d]pyrimidin-6-yl]methyl]-1-(2,2,2-trifluoroethyl)pyrimidine-2,4-dione; 2,2,2-trifluoroacetic acid] | < 1000 | 
Cc1cc(Cl)cc(-c2ccnc3cc(Cn4c(=O)ccn(CC(F)(F)F)c4=O)sc23)c1OC1CC(N2CCC[C@H]2CO)C1 (stereo partly drawn) [Example 624, 3-[[7-[5-chloro-2-[3-[(2S)-2-(hydroxymethyl)pyrrolidin-1-yl]cyclobutoxy]-3-methyl-phenyl]thieno[3,2-b]pyridin-2-yl]methyl]-1-(2,2,2-trifluoroethyl)pyrimidine-2,4-dione dihydrochloride] | < 1000 | 
Cc1cc(Cl)cc(-c2ncnc3cc(Cn4c(=O)ccn(C(C)C)c4=O)sc23)c1OC1CC(N)C1 (stereo not shown) [Example 541, 3-[[4-[2-(3-aminocyclobutoxy)-5-chloro-3-methyl-phenyl]thieno[3,2-d]pyrimidin-6-yl]methyl]-1-isopropyl-pyrimidine-2,4-dione; 2,2,2-trifluoroacetic acid] | < 1000 | 
Cc1cc(Cl)cc(-c2ccnc3cc(Cn4c(=O)ccn(C(C)(C)C)c4=O)sc23)c1O[C@H]1CCCNC1 [Example 282] |  | < 1000

Reference: patent US10722514B2 (FLX Bio, Inc., priority 2017, dated 2020)
